Test results from article PMC9436958, “The synthesis of novel thioderivative chalcones and their influence on NF-κB, STAT3 and NRF2 signaling pathways in colorectal cancer cells” (Scientific Reports, 2022).

Experiments:
Type in all cases: cell-based
Bcl-xl = Bcl-xl expression (qRT-PCR mRNA, Western blot protein); conditions: HCT116 cells, 5 at 5 μM; for Bcl-xl transcription: 4 at 1 μM
Procedure: (§1) Cytosolic and nuclear extracts were prepared using a Nuclear/Cytosol Fractionation Kit (BioVision Research, USA). Cytosolic extracts (for NF-κBp65, NF-κBp50, COX-2, iNOS, STAT3, c-Myc, Bcl-xl, Nrf2, SOD, GSTP, EGFR, Akt, p-Akt, Keap1, IKKα/β and β-actin) or nuclear extracts (for NF-κBp65, NF-κBp50, STAT3, p-STAT3, Nrf2, p-Nrf2 and lamin) were separated on 7.5%, 10% or 12% SDS–PAGE slab gels. Then, the proteins were transferred to a nitrocellulose Immobilon-P membrane. After blocking for 2 h with 10% skimmed milk, proteins were incubated with primary antibodies against NF-κBp65, NF-κBp50, COX-2, iNOS, STAT3, p-STAT3, c-Myc, Bcl-xl, Nrf2, p-Nrf2, SOD, GSTP, EGFR, Akt, p-Akt, Keap1, IKKα/β, β-actin, and lamin. Alkaline phosphatase (AP)-labeled anti-rabbit IgG, anti-goat IgG, and anti-mouse IgG secondary antibodies (Bio-Rad Laboratories, USA), as well as horseradish peroxidase (HRP)-conjugated anti-mouse IgG (Boster Bio, USA) secondary antibodies were used in the staining reaction. Bands were visualized by the AP Conjugate Substrate Kit NBT/BCIP or the chemiluminescent HRP substrate of the Clarity ECL Kit (Bio–Rad Laboratories, USA). The amount of immunoreactive product in each lane was determined using a ChemiDoc Imaging System (Bio–Rad Laboratories, USA). Values were calculated as relative absorbance units (RQ) per mg of protein and expressed as a percentage of the control.
(§2) Total RNA from cells was isolated with the GeneMatrix Universal DNA/RNA/Protein Purification Kit (EurX, Poland). For the qRT-PCR analyses, the Maxima SYBR Green I/ROX qPCR Master Mix (2×) (Thermo Fisher Scientific, USA) and the thermal cycler LightCycler (Roche, Germany) were used. The protocol started with 5 min of enzyme activation at 95 °C, followed by 40–50 cycles at 95 °C for 15 s, 56 °C for 20 s, 72 °C for 40 s, and final elongation at 72 °C for 5 min. Melting curve analysis was used for amplicon verification. The expression levels of TATA-box-binding protein (TBP) and porphobilinogen deaminase (PBGD) were used to normalize the data. The Pfaffl comparative method was used to calculate fold change. Primers were designed using Beacon Designer software (the sequences of primers used to analyze genes are listed in Table 2 of the supplementary materials).

NF-κB p65 = test: Western blot, NF-κB p65 protein level; conditions: 4 at 1 μM, vs control
Procedure: as §1

STAT3 [1] = test: Transcription factor ELISA, STAT3 binding to DNA; conditions: 2, 5 at 5 μM, 4 at 1 μM; for binding of STAT3 to DNA: HCT116 cells; for decrease in the binding of STAT3 to DNA: nuclear fraction of DLD-1 cells
Procedure: (§3) To estimate NF-ΚB (p50 and p65 subunits) STAT3 and Nrf2 activation, enzymatic immunoassays with the Transcription Factor ELISA Kit (TransAM™NF-κB, TransAM™STAT3/TransAM™Nrf2, Active Motif, Carlsbad CA, USA) were used following the manufacturer’s protocol. Briefly, proper consensus-site double-strand oligonucleotides (NF-κB—5′-GGGACTTTCC-3′; STAT3-5’—TTCCCGGAA-3’; Nrf2-5ʹ—[…]-3ʹ) were immobilized on an ELISA plate and incubated for one hour with the nuclear extracts. The activated subunits bound to DNA were recognized with a specific primary antibody and detected with an HRP-conjugated secondary antibody. The number of subunits was determined by spectrophotometry at λ = 450 nm. The number of p50, and p65 subunits, STAT3, as well as the amount of Nrf2 contained in the DNA-binding complex, corresponded to the activated NF-κB, STAT3, or Nrf2 transcription factors.

HCT116 cells [2] = test: MTT viability assay, HCT116 cells; conditions: Homo sapiens, HCT-116, range 0.5–100 µM, read-out: IC50, cytotoxicity
Procedure: (§4) The DLD-1 and HCT116 colorectal carcinoma cell lines were purchased from ECACC. The HaCaT cell line of spontaneously immortalized keratinocytes was purchased from Cell Lines Service (Germany). The cells were cultured in Dulbecco’s Modified Eagle’s Medium (DMEM, Sigma-Aldrich, USA) with the addition of 10% FBS (EURx, Poland) and 1% antibiotic solution (penicillin and streptomycin) (Sigma-Aldrich, USA) at 37 °C in an atmosphere with 95% humidity and 5% CO2.
(§5) The effect of the tested compounds on the viability of DLD-1, HCT116 and HaCaT cells was assessed by the MTT assay according to the standard protocol.

Nrf2 = test: Transcription factor ELISA, Nrf2 binding to DNA
Procedure: as §3

HCT116 cells [3] = test: Apoptosis, Annexin V / 7-AAD flow cytometry, HCT116; conditions: 48 h; for induction of apoptosis: increase of early, late and total apoptosis
Procedure: (§6) Apoptosis was assessed by the detection of phosphatidylserine externalization based on Annexin V staining combined with fluorescent DNA intercalator 7-Aminoactinomycin D (7-AAD) what allowed for the discrimination between early and late apoptotic cells. The analysis was performed by flow cytometry using the Muse Annexin V & Dead Cell Kit (Luminex, USA) and the Muse Cell Analyzer (Merck, Germany), according to the manufacturer’s protocol. Cells were seeded (2 × 10^5 cells per well) in six-well plates and on the following day the analyzed compounds were added. Topotecan (Sigma-Aldrich, USA) was used as a positive control of apoptosis induction. After 48 h cells were collected by trypsinization, stained and after 20 min incubation at room temperature in the dark analyzed by flow cytometry. Three independent experiments were performed. Data were analyzed by Muse 1.5 Analysis Software (Merck, Germany).

p-Akt = test: Western blot, p-Akt (Ser 473) protein in cytosolic fraction; conditions: 2, 5 at 5 μM, 4 at 1 μM
Procedure: as §1

[4] = MTT viability assay, normal HaCaT cells; conditions: HaCaT cells (spontaneously immortalized keratinocytes), normal human HaCaT cells, read-out: IC50, cytotoxicity
Procedure: as §4, §5

EGFR = test: Western blot, EGFR protein in cytosolic fraction; conditions: 4 at 1 μM
Procedure: as §1

DLD-1 cells [5] = test: MTT viability assay, DLD-1 cells; conditions: Homo sapiens, range 0.5–100 µM, read-out: IC50, cytotoxicity
Procedure: as §4, §5

STAT3 [6] = test: qRT-PCR, STAT3 mRNA; conditions: DLD-1 cells; 2, 5 at 5 μM, 4 at 1 μM
Procedure: as §2

DLD-1 cells [7] = test: Apoptosis, Annexin V / 7-AAD flow cytometry, DLD-1; conditions: 48 h; for induction of apoptosis: mainly early and total apoptotic populations enriched
Procedure: as §6

[8] = HCT116 cells, 4 at 1 μM, 2, 5, 6, 7 at 5 μM
[9] = doubled concentration: 4 at 2 μM, 5 at 10 μM

binding of STAT3 to DNA (STAT3 [1]) | Nrf2 binding to a specific nucleotide sequence (ELISA) (Nrf2; [8]) | Compound | Bcl-xl transcription (Bcl-xl) | decrease in the binding of STAT3 to DNA (STAT3 [1]) [%] | IC50 (HCT116 cells [2]) [µM] | late and total apoptosis compared with BAY 11-7082 (5 µM) (HCT116 cells [3]; [9]) | induction of apoptosis (HCT116 cells [3]) | phosphorylation of p-Akt (Ser 473) (p-Akt; DLD-1 cells) | phosphorylation of p-Akt (Ser 473) (p-Akt; HCT116 cells) | IC50 [4] [µM] | level of EGFR (EGFR; DLD-1 cells, 2, 5 at 5 μM) | IC50 (DLD-1 cells [5]) [µM] | STAT3 gene expression (mRNA) (STAT3 [6]) | induction of apoptosis (DLD-1 cells [7]) | further results
decreased the binding of STAT3 to DNA | statistically significant increase | COc1cc(C(=O)/C=C/c2cccc(SC)c2)cc(Br)c1OC [chalcone 4] | decreased Bcl-xl transcription | 30 | 20 | higher percentage of late and total apoptosis than BAY 11-7082 | able to induce apoptosis | significantly reduced phosphorylation of p-Akt | significantly reduced phosphorylation of p-Akt | 3 | significantly decreased the level of EGFR | 2 | decreased | able to induce apoptosis | decrease of p65 level in the nuclear fraction (NF-κB p65; DLD-1 cells): 22%; decrease of p65 level in the nuclear fraction (NF-κB p65; HCT116 cells): 26%; level of EGFR (EGFR; HCT116 cells): significantly decreased the level of EGFR
decreased the binding of STAT3 to DNA | statistically significant increase | COc1cc(/C=C/C(=O)c2cc(Br)c(SC)c(OC)c2)ccc1SC [chalcone 5] | decreased Bcl-xl transcription | 20 | 13 | higher percentage of late and total apoptosis than BAY 11-7082 | able to induce apoptosis | significantly reduced phosphorylation of p-Akt | significantly reduced phosphorylation of p-Akt | 14 | significantly decreased the level of EGFR | 11 | decreased | able to induce apoptosis | Bcl-xl protein level (Bcl-xl): correlated with Bcl-xl protein level; Nrf2 binding to a specific nucleotide sequence (ELISA) (Nrf2; DLD-1 cells, 1 at 1 μM, 3, 5, 7, 8 at 5 μM): statistically significant increase; late and total apoptosis compared with BAY 11-7082 (5 µM) (HCT116 cells [3]; standard concentration: 5 at 5 μM): higher percentage of late and total apoptosis than BAY 11-7082; total apoptotic cells compared with BAY 11-7082 (5 µM) (DLD-1 cells [7]; 5 in higher concentration): comparable effect
